The results in this text go back to patent publication US8729269B2, “Substituted piperidino phenyloxazolidinones having antimicrobial activity with improved in vivo efficacy” (Wockhardt Limited, priority 2003, dated 2014).

The subject of assay [1] is Streptococcus pyogenes 801 (SPY 801). In words: Minimum Inhibitory Concentration (MIC) determination, agar with 5% sheep blood. Format: cell-based. Conditions: Mueller Hinton agar containing 5% sheep blood. As for the experimental part: (§1) Overnight grown cultures of Methicilin resistant Staphylococcus aureus 32 (MRSA 32), Methicilin resistant Staphylococcus epidermidis 118 (MRSE 118), Vancomycin resistant enterococci 303 (VRE 303) in Tryptic Soya broth were diluted in Mueller Hinton Broth to give optical density matching with MacFarland tube 0.5 standard. Cultures were further diluted 1:10 in Mueller Hinton broth. Using Denley's multipoint inoculator, 10^4 cells were deposited on Mueller Hinton agar (Difco) containing range of 2 fold dilutions of test compounds. These plates were incubated for 24 hrs at 35° C. and MIC results recorded. MIC is defined as minimum drug concentration that inhibits test organisms. For determining MIC of test compounds against Streptococcus pneumoniae 49619 (SPN 49619) and Streptococcus pyogenes 801 (SPY 801), Mueller Hinton agar containing 5% sheep blood was employed.

Assay [2] relates to Streptococcus pneumoniae 49619 (SPN 49619). Described as above. It counts as cell-based. Particulars: Mueller Hinton agar containing 5% sheep blood. Here is the method: as §1
Assay [3] has as its system methicillin resistant Staphylococcus aureus strain MRSA 32. As to the kind of experiment: Murine Assay Procedure (in vivo efficacy, MRSA 32 infection). Conditions: swiss mice infected intraperitoneally with MRSA 32, oral gavage 1 h after infection, repeat dose 3 hrs later, percentage survival on Day 7. Here is the method: Oxazolidinone new chemical entities (NCEs) were evaluated for their in vivo efficacy in a murine infection caused by multi-drug resistant, methicillin resistant Staphylococcus aureus strain, referred to as MRSA 32, a clinical isolate obtained from a hospitalized patient. The procedure used for the murine assay is as follows:
Four weeks old swiss mice of 18-22 gm body weight were infected with MRSA 32 strain suspended in 5% Hog gastric mucin. The infecting dose of bacteria was set at 1-2×10^8 CFU/animal. The infecting dose was administered in 0.5 ml volume injected into peritonial cavity of mice. The treatment with oxazolidinone NCEs was started one hour after infection by administering 100-200 μl of the suspensions of oxazolidinone compounds in 5% Tween 80 by oral gavage. A repeat dose was similarly administered 3 hrs later. Each oxazolidinone NCE was tested at 2-3 different dosages in the range of 2.5 mg/kg to 20 mg/kg. In each dose group 6 mice were included. As an infection control group 12 mice were infected with MRSA 32 strain without giving any treatment. For compounds affording protection of MRSA infected mice, ED50 dosages were calculated on the basis of percentage survival on Day 7 after infection.

The subject of assay [4] is Methicilin resistant Staphylococcus epidermidis 118 (MRSE 118). In words: Minimum Inhibitory Concentration (MIC) determination, agar dilution. It counts as cell-based. Particulars: Mueller Hinton agar, 24 hrs at 35° C. Here is the method: as §1
In general terms: In agar dilution the substance is mixed into plates at graded concentrations.

Assay [5] has as its system Methicilin resistant Staphylococcus aureus 32 (MRSA 32). The description is as above. It counts as cell-based. Particulars: Mueller Hinton agar, 24 hrs at 35° C. As for the experimental part:
as §1

The subject of assay [6] is Vancomycin resistant enterococci 303 (VRE 303). The assay is described as above. Format: cell-based. Particulars: Enterococcus, Mueller Hinton agar, 24 hrs at 35° C. Here is the method: as §1

In brackets after ≈: the same amount, converted by molar mass.

Take `CC(=O)NC[C@H]1CN(c2ccc(N3CCC(C)(F)CC3)c(F)c2)C(=O)O1` [Example 1, (S)—N-{3-[4-(4-Fluoro-4-methylpiperidin-1-yl)-3-fluorophenyl]-2-oxo-oxazolidin-5-ylmethyl}-acetamide]: the minimal inhibitory concentration (MIC) in assay [1] was found to be 2 µg/mL (≈ 5.44 µM); in assay [2] it was 2 µg/mL (≈ 5.44 µM); in assay [4], 2 µg/mL (≈ 5.44 µM); in assay [5], 4 µg/mL (≈ 10.9 µM); in assay [6], 4 µg/mL (≈ 10.9 µM). In assay [3], this molecule registered an ED50 of 10 mg/kg.

As for `CC(=O)NC[C@H]1CN(c2ccc(N3CCC(O)(CN=[N+]=[N-])CC3)cc2)C(=O)O1` [Example 178, (S)—N-{3-[4-(4-azidomethyl-4-hydroxy-piperidin-1-yl)-phenyl]-2-oxo-oxazolidin-5-ylmethyl}-acetamide], the MIC in assay [1] is 4 µg/mL (≈ 10.3 µM); in assay [2], 4 µg/mL (≈ 10.3 µM); in assay [4], 2 µg/mL (≈ 5.15 µM); in assay [5], 4 µg/mL (≈ 10.3 µM); in assay [6], 8 µg/mL (≈ 20.6 µM). In assay [3], this molecule returned an ED50 of 10 mg/kg.

Take `CC(=O)NC[C@H]1CN(c2ccc(N3CCC4(CC3)COCO4)c(F)c2)C(=O)O1` [Example 125, (S)—N-{3-[4-(1,3-dioxa-8-aza-spiro[4.5]dec-8-yl)-3-fluorophenyl]-2-oxo-oxazolidin-5-ylmethyl}-acetamide]: the MIC in assay [1] was found to be 2 µg/mL (≈ 5.08 µM); in assay [2], 2 µg/mL (≈ 5.08 µM); in assay [4], 2 µg/mL (≈ 5.08 µM); in assay [5], 4 µg/mL (≈ 10.2 µM); in assay [6] it was 4 µg/mL (≈ 10.2 µM). It took a dose of 10 mg/kg to reach the 50% effect level in assay [3] (ED50).

For the molecule `CS(=O)(=O)OC[C@H]1CN(c2cc(F)c(N3CCC4(CC3)OCCO4)c(F)c2)C(=O)O1` [Example 146, (R)—N-{3-[4-(1,4-dioxa-8-aza-spiro[4.5]dec-8-yl)-3,5-difluorophenyl]-2-oxo-oxazolidin-5-ylmethyl}-methanesulfonate], the minimum inhibitory concentration (MIC) was 4 µg/mL (≈ 8.92 µM) in assay [1]; 4 µg/mL (≈ 8.92 µM) in assay [2]; 2 µg/mL (≈ 4.46 µM) in assay [4]; 4 µg/mL (≈ 8.92 µM) in assay [5]; 4 µg/mL (≈ 8.92 µM) in assay [6]. In assay [3], this molecule displayed a median effective dose (ED50) of 2.5 mg/kg.

As for `CC(=O)NC[C@H]1CN(c2ccc(N3CCOCC3)c(F)c2)C(=O)O1` [Linezolid, reference compound], the minimal inhibitory concentration (MIC) in assay [1] was found to be 2 µg/mL (≈ 5.93 µM); in assay [2], 2 µg/mL (≈ 5.93 µM); in assay [4], 1 µg/mL (≈ 2.96 µM); in assay [5] it was 2 µg/mL (≈ 5.93 µM); in assay [6], 2 µg/mL (≈ 5.93 µM). Also, the ED50 in assay [3] is 5 mg/kg.

As for `CC(=O)NC[C@H]1CN(c2ccc(N3CCC4(CC3)SCCN4C)c(F)c2)C(=O)O1` [Example 113, (S)—N-{3-[4-(8-aza-1-thia-4-(N-methyl)-spiro[4.5]dec-8-yl)-3-fluorophenyl]-2-oxo-oxazolidin-5-ylmethyl}-acetamide], the MIC in assay [1] was 2 µg/mL (≈ 4.73 µM); in assay [2] it was 2 µg/mL (≈ 4.73 µM); in assay [4], 1 µg/mL (≈ 2.37 µM); in assay [5], 4 µg/mL (≈ 9.47 µM); in assay [6], 4 µg/mL (≈ 9.47 µM). Also, the ED50 in assay [3] amounted to 10 mg/kg.

As for `CC(=O)NC[C@H]1CN(c2ccc(N3CCC4(CC3)C[S+]([O-])CCO4)c(F)c2)C(=O)O1` (stereo partly drawn) [Example 162, (S)—N-{3-[4-(1-oxa-4-sulfinyl-9-aza-spiro[5.5]undec-9-yl)-3-fluorophenyl]-2-oxo-oxazolidin-5-ylmethyl}-acetamide], the MIC is 4 µg/mL (≈ 9.1 µM) in assay [1], 4 µg/mL (≈ 9.1 µM) in assay [2] and 8 µg/mL (≈ 18.2 µM) in assay [5]. Also, the ED50 in assay [3] is 10 mg/kg.

With `CC(=O)NC[C@H]1CN(c2ccc(N3CCC(F)(CNC(C)=O)CC3)c(F)c2)C(=O)O1` [Example 6, (S)—N-{3-[4-(4-Fluoro-4-(N-acetylamino)-methylpiperidin-1-yl)-3-fluorophenyl]-2-oxo-oxazolidin-5-ylmethyl}-acetamide], the MIC amounted to 2 µg/mL (≈ 4.71 µM) in assay [1]; 2 µg/mL (≈ 4.71 µM) in assay [2]; 2 µg/mL (≈ 4.71 µM) in assay [4]; 8 µg/mL (≈ 18.8 µM) in assay [5]; 8 µg/mL (≈ 18.8 µM) in assay [6]. The molecule further had an ED50 in assay [3] of 10 mg/kg.

For the molecule `CC(=O)NC[C@H]1CN(c2ccc(N3CCC(O)(C#N)CC3)c(F)c2)C(=O)O1` [Example 19, (S)—N-{3-[4-(4-Cyano-4-hydroxypiperidin-1-yl)-3-fluorophenyl]-2-oxo-oxazolidin-5-ylmethyl}-acetamide], the minimal inhibitory concentration (MIC) in assay [1] amounted to 8 µg/mL (≈ 21.3 µM); in assay [2], 4 µg/mL (≈ 10.6 µM); in assay [4] it was 0.5 µg/mL (≈ 1.33 µM); in assay [5], 4 µg/mL (≈ 10.6 µM); in assay [6], 4 µg/mL (≈ 10.6 µM). In assay [3], this molecule showed a 50% effective dose (ED50) of 5 mg/kg.

Consider `CC(=O)NC[C@H]1CN(c2ccc(N3CCC(F)(CN=[N+]=[N-])CC3)c(F)c2)C(=O)O1` [Example 4, (S)—N-{3-[4-(4-Fluoro-4-azidomethylpiperidin-1-yl)-3-fluorophenyl]-2-oxo-oxazolidin-5-ylmethyl}-acetamide], for which the MIC in assay [1] came to 2 µg/mL (≈ 4.9 µM); in assay [2], 2 µg/mL (≈ 4.9 µM); in assay [4], 1 µg/mL (≈ 2.45 µM); in assay [5], 2 µg/mL (≈ 4.9 µM); in assay [6], 2 µg/mL (≈ 4.9 µM). The ED50 in assay [3] is 10 mg/kg.

In the case of `CC(=O)NC[C@H]1CN(c2ccc(N3CCC(C)(O)CC3)c(F)c2)C(=O)O1` [Example 17, (S)—N-{3-[4-(4-Methyl-4-hydroxypiperidin-1-yl)-3-fluorophenyl]-2-oxo-oxazolidin-5-ylmethyl}-acetamide], the minimum inhibitory concentration (MIC) in assay [1] is more than 16 µg/mL; in assay [2] it was more than 16 µg/mL; in assay [4], more than 32 µg/mL; in assay [5], 8 µg/mL (≈ 21.9 µM); in assay [6], more than 32 µg/mL. The molecule further yielded an ED50 in assay [3] of 10 mg/kg.

In assay [3], `COCC1(O)CCN(c2ccc(N3C[C@H](CNC(C)=O)OC3=O)cc2)CC1` [Example 177, (S)—N-{3-[4-(4-methoxymethyl-4-hydroxy-piperidin-1-yl)-phenyl]-2-oxo-oxazolidin-5-ylmethyl}-acetamide] yielded an ED50 of 10 mg/kg. Besides, the MIC stood at 4 µg/mL (≈ 10.6 µM) in assay [4], 8 µg/mL (≈ 21.2 µM) in assay [5] and 8 µg/mL (≈ 21.2 µM) in assay [6].

For `COCC1(O)CCN(c2ccc(N3C[C@H](CNC(C)=O)OC3=O)cc2F)CC1` [Example 33, (S)—N-{3-[4-(4-Methoxymethyl-4-hydroxypiperidin-1-yl)-3-fluorophenyl]-2-oxo-oxazolidin-5-ylmethyl}-acetamide], the minimum inhibitory concentration (MIC) in assay [1] was determined as 2 µg/mL (≈ 5.06 µM); in assay [2], 2 µg/mL (≈ 5.06 µM); in assay [4], 4 µg/mL (≈ 10.1 µM); in assay [5], 8 µg/mL (≈ 20.2 µM); in assay [6], 4 µg/mL (≈ 10.1 µM). The molecule further returned an ED50 in assay [3] of 10 mg/kg.

In the case of `CS(=O)(=O)OC[C@H]1CN(c2cc(F)c(N3CCC(O)CC3)c(F)c2)C(=O)O1` [Example 173, (R)—N-{3-[4-(4-hydroxy-piperidin-1-yl)-3,5-difluorophenyl]-2-oxo-oxazolidin-5-ylmethyl}-methanesulfonate], the MIC in assay [1] was 4 µg/mL (≈ 9.84 µM); in assay [2], 2 µg/mL (≈ 4.92 µM); in assay [4], 2 µg/mL (≈ 4.92 µM); in assay [5], 2 µg/mL (≈ 4.92 µM); in assay [6], 4 µg/mL (≈ 9.84 µM). In addition, the 50% effect level in assay [3] (ED50) was put at a dose of 5 mg/kg.

Take `CC(=S)NC[C@H]1CN(c2ccc(N3CCC(C#N)(Nc4ccc(C#N)cc4)CC3)c(F)c2)C(=O)O1` [Example 87, (S)—N-{3-[4-(4-(1-(4-Cyanophenylamino))-4-cyanopiperidin-1-yl)-3-fluorophenyl]-2-oxo-oxazolidin-5-ylmethyl}-thioacetamide]: the minimum inhibitory concentration (MIC) was determined as 0.8 µg/mL (≈ 1.62 µM) in assay [1]; 0.8 µg/mL (≈ 1.62 µM) in assay [2]; 0.5 µg/mL (≈ 1.02 µM) in assay [4]; 1 µg/mL (≈ 2.03 µM) in assay [5]; 0.4 µg/mL (≈ 0.812 µM) in assay [6]. Also, the median effective dose (ED50) in assay [3] was 10 mg/kg.

The MIC is the smallest concentration in the dilution series that meets the test's criterion for growth inhibition. Read a low MIC as a more susceptible organism. Usually ED50 stands for the dose at which the effect has come halfway, by size or by number of responders.
